Experimental data as given in article PMC3162300 (Journal of Natural Products, 2011).
Marks after values point to notes of the source that are not given here.

What was measured:
[1] = system: croton oil-induced ear dermatitis (ear tissue histology); assay: Histological analysis of ear tissue after croton oil dermatitis
[2] = system: croton oil-induced ear dermatitis (edema); assay: Croton oil-induced mouse ear dermatitis: edematous response
[3] = DPPH free-radical-scavenging assay; details: up to 100 μM
COX-1 = target: T1, COX-1 (Ovis aries, UniProt P05979); assay: COX-1 inhibition assay; assay type: biochemical, ram; details: read-out: inhibition of COX-1
T1 sequence (P05979 25-600): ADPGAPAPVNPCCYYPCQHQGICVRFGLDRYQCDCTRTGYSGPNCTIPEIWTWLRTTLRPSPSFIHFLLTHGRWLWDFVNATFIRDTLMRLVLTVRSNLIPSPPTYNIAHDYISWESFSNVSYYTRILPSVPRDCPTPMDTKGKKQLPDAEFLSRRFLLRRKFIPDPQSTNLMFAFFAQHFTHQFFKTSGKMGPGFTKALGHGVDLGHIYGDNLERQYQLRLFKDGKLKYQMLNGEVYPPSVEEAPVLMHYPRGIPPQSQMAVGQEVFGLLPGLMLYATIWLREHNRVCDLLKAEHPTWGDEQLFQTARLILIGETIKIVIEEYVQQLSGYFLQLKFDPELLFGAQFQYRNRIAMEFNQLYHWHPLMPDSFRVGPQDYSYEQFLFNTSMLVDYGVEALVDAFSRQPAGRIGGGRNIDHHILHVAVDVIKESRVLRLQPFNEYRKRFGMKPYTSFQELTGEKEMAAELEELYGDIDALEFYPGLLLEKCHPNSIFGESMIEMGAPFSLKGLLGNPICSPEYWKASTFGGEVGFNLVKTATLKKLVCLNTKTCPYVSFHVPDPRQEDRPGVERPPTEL

COX-2 = target: T2, COX-2 (Ovis aries, UniProt P79208); assay: COX-2 inhibition assay; assay type: biochemical, sheep; details: read-out: inhibition of COX-2
T2 sequence (P79208 17-603): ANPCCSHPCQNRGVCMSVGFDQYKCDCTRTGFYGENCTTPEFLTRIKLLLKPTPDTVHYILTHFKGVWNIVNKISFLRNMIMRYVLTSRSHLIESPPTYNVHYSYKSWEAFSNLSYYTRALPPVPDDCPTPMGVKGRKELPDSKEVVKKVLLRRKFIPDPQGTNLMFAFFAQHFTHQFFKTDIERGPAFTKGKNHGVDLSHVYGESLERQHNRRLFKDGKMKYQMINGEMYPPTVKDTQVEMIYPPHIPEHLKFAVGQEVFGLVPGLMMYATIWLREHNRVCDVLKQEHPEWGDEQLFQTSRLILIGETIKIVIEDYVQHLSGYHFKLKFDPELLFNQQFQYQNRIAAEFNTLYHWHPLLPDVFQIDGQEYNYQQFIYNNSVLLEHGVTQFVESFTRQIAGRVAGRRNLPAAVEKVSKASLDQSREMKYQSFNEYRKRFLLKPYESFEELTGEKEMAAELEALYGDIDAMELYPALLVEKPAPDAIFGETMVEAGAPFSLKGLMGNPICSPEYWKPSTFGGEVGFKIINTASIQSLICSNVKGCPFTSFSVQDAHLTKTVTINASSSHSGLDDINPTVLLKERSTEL

5-LO = target: T3, 5-LO (Homo sapiens, UniProt P09917); assay type: cell-based; details: read-out: inhibition of leukotriene formation
T3 sequence (P09917 1-674): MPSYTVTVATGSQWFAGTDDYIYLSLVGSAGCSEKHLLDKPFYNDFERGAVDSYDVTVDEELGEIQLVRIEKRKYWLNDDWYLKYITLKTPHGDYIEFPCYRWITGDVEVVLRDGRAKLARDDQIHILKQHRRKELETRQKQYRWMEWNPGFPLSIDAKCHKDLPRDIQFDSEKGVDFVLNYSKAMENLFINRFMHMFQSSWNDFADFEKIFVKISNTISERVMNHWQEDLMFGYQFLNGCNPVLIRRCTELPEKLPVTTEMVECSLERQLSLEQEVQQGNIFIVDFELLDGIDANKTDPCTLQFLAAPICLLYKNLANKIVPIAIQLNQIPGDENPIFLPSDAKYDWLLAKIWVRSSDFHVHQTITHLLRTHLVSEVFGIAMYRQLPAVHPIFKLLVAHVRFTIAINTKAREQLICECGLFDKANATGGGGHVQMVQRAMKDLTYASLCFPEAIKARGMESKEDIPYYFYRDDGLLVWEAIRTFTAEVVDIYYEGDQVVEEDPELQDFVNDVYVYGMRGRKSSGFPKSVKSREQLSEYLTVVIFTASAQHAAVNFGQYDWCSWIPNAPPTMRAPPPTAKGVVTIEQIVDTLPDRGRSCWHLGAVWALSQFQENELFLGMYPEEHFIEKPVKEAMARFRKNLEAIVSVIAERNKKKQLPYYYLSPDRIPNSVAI

IKK2 = target: T4, IKK2 (Homo sapiens, UniProt O14920); assay: IKK2 enzymatic activity assay; assay type: biochemical; details: 400 nM
T4 sequence (O14920 1-756): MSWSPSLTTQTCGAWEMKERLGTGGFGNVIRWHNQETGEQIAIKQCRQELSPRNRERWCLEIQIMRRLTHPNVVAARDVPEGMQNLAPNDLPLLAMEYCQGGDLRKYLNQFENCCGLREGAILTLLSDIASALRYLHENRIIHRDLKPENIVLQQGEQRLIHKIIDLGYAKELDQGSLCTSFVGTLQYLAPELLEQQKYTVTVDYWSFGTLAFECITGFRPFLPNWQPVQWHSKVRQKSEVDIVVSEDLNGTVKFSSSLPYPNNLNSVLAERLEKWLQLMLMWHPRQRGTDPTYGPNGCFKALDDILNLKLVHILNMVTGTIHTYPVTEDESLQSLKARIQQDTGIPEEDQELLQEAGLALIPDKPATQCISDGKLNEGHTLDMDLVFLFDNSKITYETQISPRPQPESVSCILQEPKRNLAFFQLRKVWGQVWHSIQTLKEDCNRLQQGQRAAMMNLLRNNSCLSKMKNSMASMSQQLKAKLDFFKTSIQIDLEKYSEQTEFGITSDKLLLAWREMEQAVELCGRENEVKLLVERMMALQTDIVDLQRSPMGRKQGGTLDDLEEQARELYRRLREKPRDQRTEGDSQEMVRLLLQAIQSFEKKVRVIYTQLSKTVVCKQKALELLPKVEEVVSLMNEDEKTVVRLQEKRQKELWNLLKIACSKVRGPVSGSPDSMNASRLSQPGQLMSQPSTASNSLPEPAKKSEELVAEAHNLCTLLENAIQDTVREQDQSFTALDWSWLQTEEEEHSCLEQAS

[4] = dose giving 50% inhibition of edema, 6 h, topical
[5] = topical dose 0.10 μmol/cm^2, 6 h
[6] = topical dose 0.30 μmol/cm^2, 6 h
[7] = topical dose 1.00 μmol/cm^2, 6 h

Row | SMILES | histological finding in ear tissue ([1]; 0.4 μmol/cm^2, 3-48 h) | ID50 (μg/cm^2) [2, 4] [μg/cm^2] | edema (mg) mean ± SE [2, 5] | edema (mg) mean ± SE [2, 6] | edema (mg) mean ± SE [2, 7] | effect in DPPH assay [3] | inhibition at 50 µM (COX-1) [%] | inhibition at 50 µM (COX-2) [%] | inhibition at 50 µM (5-LO) [%] | ID50 (μmol/cm^2) [2, 4] [μmol/cm^2] | histological finding in ear tissue ([1]; 0.04 μmol/cm^2, 3-48 h) | edema (mg) mean ± SE ([2]; topical dose 0.01 μmol/cm^2, 6 h) | edema (mg) mean ± SE ([2]; topical dose 0.03 μmol/cm^2, 6 h) | effect on IKK2 enzymatic activity (IKK2)
1 | COc1ccc2c(c1)c(CC(=O)O)c(C)n2C(=O)c1ccc(Cl)cc1 [indomethacin, reference compound] | reduced mast cell degranulation and leukocyte infiltration at all observation times | 104 | 5.2 ± 0.4 ^a mg | 3.4 ± 0.3 ^a mg | 1.4 ± 0.2 ^a mg | – | – | – | – | – | – | – | – | –
2 | C/C=C/c1ccc2oc(-c3ccc(O)cc3)c(C)c2c1 [compound 11, rataniaphenol II] | – | 106 | 6.0 ± 0.4 mg | 4.0 ± 0.2 ^a mg | 1.7 ± 0.2 ^a mg | no effect | 57.2 to 83.3 | 57.2 to 83.3 | – | – | – | – | – | –
3 | C/C=C/c1ccc2oc(-c3ccc(O)cc3O)cc2c1 [compound 6, 2-(2,4-dihydroxyphenyl)-5-(E)-propenylbenzofuran] | – | 160 | 5.9 ± 0.3 ^a mg | 4.9 ± 0.3 ^a mg | 2.5 ± 0.3 ^a mg | – | 57.2 to 83.3 | 57.2 to 83.3 | – | – | – | – | – | –
4 | C/C=C/c1ccc2c(c1)[C@@H](C)[C@H](c1ccc(O)cc1)O2 [compound 7, (+)-conocarpan] | general reduction of these vascular and cellular changes due to inflammation | 82 | 5.2 ± 0.4 ^a mg | 3.8 ± 0.2 ^a mg | 1.3 ± 0.1 ^a mg | no effect | – | – | 80.2 to 94.6 | – | – | – | – | –
5 | C/C=C/c1ccc2c(c1)C(CO)[C@@H](c1ccc(O)cc1)O2 (stereo in doubt) [compound 4, (2S,3S)-2,3-dihydro-3-hydroxymethyl-2-(4-hydroxyphenyl)-5-(E)-propenylbenzofuran] | – | 118 | 5.7 ± 0.4 ^a mg | 4.4 ± 0.3 ^a mg | 1.7 ± 0.2 ^a mg | – | – | – | – | 0.42 | – | – | – | –
6 | C/C=C/c1ccc2oc(-c3ccc(O)cc3OC)cc2c1 [compound 9, rataniaphenol III] | – | 134 | 6.1 ± 0.2 mg | 4.4 ± 0.3 ^a mg | 2.1 ± 0.3 ^a mg | – | 57.2 to 83.3 | 57.2 to 83.3 | – | – | – | – | – | –
7 | C/C=C/c1ccc2oc(-c3ccc(OC)cc3O)cc2c1 [compound 10, rataniaphenol I] | – | 160 | 6.2 ± 0.3 mg | 4.6 ± 0.3 ^a mg | 2.5 ± 0.3 ^a mg | – | – | – | – | – | – | – | – | –
8 | COc1cc(O)ccc1-c1cc2cc(CCCO)ccc2o1 [compound 1, 5-(3-hydroxypropyl)-2-(2-methoxy-4-hydroxyphenyl)benzofuran] | – | 134 | 6.0 ± 0.3 ^a mg | 4.7 ± 0.3 ^a mg | 1.7 ± 0.1 ^a mg | – | – | – | 80.2 to 94.6 | – | – | – | – | –
9 | C[C@@H]1[C@H](C)[C@@H](c2ccc(O)cc2)O[C@@H]1c1ccc(O)cc1 [compound 2, (−)-larreatricin] | – | 131 | 5.6 ± 0.3 ^a mg | 4.2 ± 0.4 ^a mg | 2.3 ± 0.2 ^a mg | – | – | – | – | – | – | – | – | –
10 | C[C@]12CCC(=O)C=C1CC[C@@H]1[C@@H]2[C@@H](O)C[C@@]2(C)[C@H]1CC[C@]2(O)C(=O)CO [hydrocortisone, reference compound] | – | 11 | 1.6 ± 0.2 ^a mg | – | – | – | – | – | – | – | attenuation of all the vascular and cellular signs of inflammation | 4.9 ± 0.3 ^a mg | 3.1 ± 0.3 ^a mg | –
11 | NC(=O)Nc1sc(-c2ccc(F)cc2)cc1C(N)=O [IKK2 inhibitor IV] | – | – | – | – | – | – | – | – | – | – | – | – | – | completely suppressed IKK2 enzymatic activity to the background level
12 | COc1ccc(-c2cc3cc(CCCO)ccc3o2)c(O)c1 [compound 5, 2-(2-hydroxy-4-methoxyphenyl)-5-(3-hydroxypropyl)benzofuran] | general reduction of these vascular and cellular changes due to inflammation | 107 | 5.2 ± 0.3 ^a mg | 3.4 ± 0.2 ^a mg | 2.3 ± 0.2 ^a mg | – | – | – | 80.2 to 94.6 | – | – | – | – | –
13 | C/C=C/c1ccc2oc(-c3ccc(O)cc3)cc2c1 [compound 8, 2-(4-hydroxyphenyl)-5-(E)-propenylbenzofuran] | – | 110 | 5.9 ± 0.3 ^a mg | 4.5 ± 0.3 ^a mg | 1.8 ± 0.3 ^a mg | no effect | 57.2 to 83.3 | 57.2 to 83.3 | – | – | – | – | – | –
14 | C[C@@H]1[C@H](C)[C@@H](c2ccc(O)cc2)O[C@H]1c1ccc(O)cc1 [compound 3, meso-3,3′-didemethoxynectandrin B] | – | 102 | 5.9 ± 0.3 ^a mg | 3.3 ± 0.3 ^a mg | 1.9 ± 0.2 ^a mg | – | – | – | – | – | – | – | – | –
